# Laboratory results as given in patent publication US20120321609A1, “METHOD OF TREATING PSYCHOLOGICAL DISORDERS” (priority 2011, published 2012).
# Ends that are not written are not given here.
# T1: CRFR1 (Homo sapiens, UniProt P34998)
# T1 construct: expressed in transfected cells; host or cells: HEK 293
# T1 sequence (P34998 24-415): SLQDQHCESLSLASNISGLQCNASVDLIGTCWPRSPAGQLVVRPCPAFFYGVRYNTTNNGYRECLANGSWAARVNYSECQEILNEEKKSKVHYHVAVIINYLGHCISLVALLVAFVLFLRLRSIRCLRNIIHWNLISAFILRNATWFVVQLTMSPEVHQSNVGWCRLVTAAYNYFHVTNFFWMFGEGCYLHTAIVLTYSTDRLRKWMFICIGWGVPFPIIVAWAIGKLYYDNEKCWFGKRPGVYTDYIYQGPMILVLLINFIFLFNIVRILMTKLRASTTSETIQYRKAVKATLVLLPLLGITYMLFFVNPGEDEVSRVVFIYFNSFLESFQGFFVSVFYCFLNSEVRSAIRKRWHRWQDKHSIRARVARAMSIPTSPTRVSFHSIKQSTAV
# B1: Rab11-S25N: dominant negative Rab11 protein inhibiting receptor recycling via slow recycling endosomes (protein, UniProt P62491 2-213, looked up, variant S25N)
# Ras-related protein Rab-11A: GTRDDEYDYLFKVVLIGDSGVGKNNLLSRFTRNEFNLESKSTIGVEFATRSIQVDGKTIKAQIWDTAGQERYRAITSAYYRGAVGALLVYDIAKHLTYENVERWLKELRDHADSNIVIMLVGNKSDLRHLRAVPTDEARAFAEKNGLSFIETSALDSTNVEAAFQTILTEIYRIVSQKQMSDRRENDMSPSNNVVPIHVPPTTENKPKVQCC
# B2: corticotropin releasing factor (CRF) peptide (ligand, UniProt P06850 154-194, looked up, species assumed)
# Corticoliberin: SEEPPISLDLTFHLLREVLEMARAEQLAQQAHSNRKLMEII
# modifications: ends and bridges not checked
# B3: Dynamin I-K44A: dominant-negative inhibitor of clathrin-mediated endocytosis, expressed in cells (protein, UniProt Q05193 1-864, looked up, variant K44A)
# Dynamin-1: MGNRGMEDLIPLVNRLQDAFSAIGQNADLDLPQIAVVGGQSAGASSVLENFVGRDFLPRGSGIVTRRPLVLQLVNATTEYAEFLHCKGKKFTDFEEVRLEIEAETDRVTGTNKGISPVPINLRVYSPHVLNLTLVDLPGMTKVPVGDQPPDIEFQIRDMLMQFVTKENCLILAVSPANSDLANSDALKVAKEVDPQGQRTIGVITKLDLMDEGTDARDVLENKLLPLRRGYIGVVNRSQKDIDGKKDITAALAAERKFFLSHPSYRHLADRMGTPYLQKVLNQQLTNHIRDTLPGLRNKLQSQLLSIEKEVEEYKNFRPDDPARKTKALLQMVQQFAVDFEKRIEGSGDQIDTYELSGGARINRIFHERFPFELVKMEFDEKELRREISYAIKNIHGIRTGLFTPDMAFETIVKKQVKKIREPCLKCVDMVISELISTVRQCTKKLQQYPRLREEMERIVTTHIREREGRTKEQVMLLIDIELAYMNTNHEDFIGFANAQQRSNQMNKKKTSGNQDEILVIRKGWLTINNIGIMKGGSKEYWFVLTAENLSWYKDDEEKEKKYMLSVDNLKLRDVEKGFMSSKHIFALFNTEQRNVYKDYRQLELACETQEEVDSWKASFLRAGVYPERVGDKEKASETEENGSDSFMHSMDPQLERQVETIRNLVDSYMAIVNKTVRDLMPKTIMHLMINNTKEFIFSELLANLYSCGDQNTLMEESAEQAQRRDEMLRMYHALKEALSIIGDINTTTVSTPMPPPVDDSWLQVQSVPAGRRSPTSSPTPQRRAPAVPPARPGSRGPAPGPPPAGSALGGAPPVPSRPGASPDPFGPPPQVPSRPNRAPPGVPSRSGQASPSRPESPRPPFDL
# Columns and labels:
# CRFR1 = target: T1, CRFR1; test: CRF-stimulated cAMP formation (cAMP-Glo) in HEK 293 cells with FLAG-5-HT2AR and HA-CRFR1; assay type: cell-based; details: 5-HT 10 μM pretreatment 30 min
# Experimental: Briefly, HEK 293 cells transiently expressing FLAG-5-HT2AR and HA-CRFR1 were seeded into 96-well plate (10,000 cells/well). Two days after transfection, cells were incubated in the absence or presence of 10 μM 5-HT in induction buffer [HBSS, 500 μM isobutyl-1-methylxanthine (IBMX)] for 30 minutes at 37° C. […] Following stimulation, cells were solubilized with cAMP-Glo lysis buffer for 15 minutes with gentle shaking at room temperature. Lysates were carefully transferred to a white opaque 96-well plate and cAMP-Glo Detection solution containing protein kinase A was added for 20 minutes at room temperature followed by addition of Kinase-Glo Reagent for 10 min. Luminescence was measured using a Victor Reader (Perkin-Elmer, Walthan, Mass.).
# mice [1] = test: Elevated plus maze test (anxiety-related behaviour); assay type: in vivo, mouse; details: DOI 0.15 mg/kg i.p.; for entries to the closed arms of the plus maze: relative to vehicle
# Experimental: (§1) Male CD-1 mice were obtained from Charles River Canada (St. Constant, Quebec) at 50-60 days of age, and were acclimatized to the laboratory for approximately 30 days before serving as experimental subjects. Mice were housed four per cage, until the time of surgery, after which they were housed individually. The vivarium was maintained on a 12-h light/dark cycle in a temperature (21° C.) controlled room with food and water freely available. Mice were anesthetized using isoflurane and stereotaxic surgery (David Kopf Instruments Model 940) was performed to install a cannulae into the medial prefrontal cortex. A Guide cannulae (Plastics One In), situated according to the mouse atlas of Franklin and Paxinos at Lateral=0.32 mm, D/V=2.25 mm, A/P=+2.68 mm. A dummy cannula, was inserted flush with guide. Approximately 1 week after behavioral testing mice were perfused with 4% paraformaldehyde. Brains were subsequently sectioned at 14 microns and stained with Cresyl violet for probe placement verification. Only the data from mice with correct probe placements were used in the analysis of the behavioral tests.
# Drug diffusion was permitted for 5 min, and then after a further 5 min period mice were injected intraperotineally with DOI (Sigma) at a dose of 0.15 mg/kg or saline. Behavioral testing was conducted 15 min after the DOI treatment. In a second experiment the procedure was identical to that of the preceding study, except that mice were pretreated i.p. with either vehicle or 0.25 mg/kg of M100907 in a volume of 0.3 ml immediately prior to the DOI treatment. As in the preceding study mice were then tested in the elevated plus maze test (n=6-8)/group. Once again, data were obtained from videotapes and the researcher was blind as to the treatments mice had received.
# In an initial test, mice were placed in a 45×45 cm open field, with an inner square of 21×24×24 cm., for a 5 min period, during which the time to enter the center area, and the total time spent in the center portion of the arena was recorded. The plus maze test was then conducted 1 min after the open field assessment. Mice were individually placed in one of the enclosed arms of a plus-maze and the behavior of the animals was recorded over a 5 min period by a ceiling-mounted video camera. The amount of time spent in each of the arms, the number of arm entries (an arm entry was defined as all four of the paws being placed in an arm of the plus-maze). The elevated plus-maze had two arms enclosed by 21 cm high walls; whereas the remaining two arms were open (arms were 24.8 cm long×7.7 cm wide). The maze was situated in a dimly lit room, such that the closed arms were darkened, whereas open arms were somewhat illuminated. All behavioural experiments were blinded. All experiments complied with the guidelines set by the Canadian Council on Animal Care and were approved by the Carleton University Animal Care Committee.
# mice [2] = test: Open field test (anxiety-related behaviour); assay type: in vivo, mouse; details: 5 min test; CRF 1.5 μg into medial prefrontal cortex, DOI 0.15 mg/kg i.p.; vs vehicle-vehicle or single treatment
# Experimental: as §1, with “Brains were subsequently sectioned at 14 microns and stained with Cresyl violet for probe placement verification. Only the data from mice with correct probe placements were used in the analysis of the behavioral tests.” left out
# In an initial test, mice were placed in a 45×45 cm open field, with an inner square of 21×24×24 cm., for a 5 min period, during which the time to enter the center area, and the total time spent in the center portion of the arena was recorded. […] Mice were individually placed in one of the enclosed arms of a plus-maze and the behavior of the animals was recorded over a 5 min period by a ceiling-mounted video camera. […]
# mice [3] = test: Elevated plus maze test (anxiety-related behaviour); assay type: in vivo, mouse; details: DOI doses 0.625 and 1.25; data not shown
# 5-HT2AR = target: T2, 5-HT2AR (Homo sapiens, UniProt P28223); test: 5-HT-stimulated inositol phosphate formation in HEK 293 cells transfected with FLAG-5-HT2AR and HA-CRFR1; assay type: cell-based; details: for effect on the CRFR1-dependent increase in 5-HT2AR-stimulated inositol phosphate formation following CRF pretreatment: CRF 500 nM 30 min, monensin 100 μM 30 min, Tat peptide 1 h pretreatment, or co-expressed dominant-negative protein
# T2 construct: expressed in transfected cells; host or cells: HEK 293
# T2 sequence (P28223 whole entry): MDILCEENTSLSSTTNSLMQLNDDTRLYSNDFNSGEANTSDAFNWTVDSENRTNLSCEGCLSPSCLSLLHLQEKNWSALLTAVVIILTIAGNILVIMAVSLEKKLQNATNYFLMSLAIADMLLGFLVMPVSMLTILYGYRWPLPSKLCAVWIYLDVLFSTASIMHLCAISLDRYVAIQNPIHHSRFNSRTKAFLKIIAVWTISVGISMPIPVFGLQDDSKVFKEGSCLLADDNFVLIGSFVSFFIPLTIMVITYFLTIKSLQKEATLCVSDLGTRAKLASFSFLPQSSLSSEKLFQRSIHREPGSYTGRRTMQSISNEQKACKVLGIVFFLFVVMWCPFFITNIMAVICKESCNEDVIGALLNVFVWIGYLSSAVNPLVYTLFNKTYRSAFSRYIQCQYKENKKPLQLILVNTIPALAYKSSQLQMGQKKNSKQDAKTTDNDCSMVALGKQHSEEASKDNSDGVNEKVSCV
# HA-CRFR1 [4] = target: HA-CRFR1
# [5] = target: endogenous CRFR1 of mouse prefrontal cortex (mouse) (UniProt P35347)
# HA-CRFR1 [6] = target: HA-CRFR1; remark: listed apart in the source
# [7] = second experiment (M100907 study), CRF 1.5 μg mPFC, M100907 0.25 mg/kg i.p.
# [8] = first experiment, CRF 1.5 μg into medial prefrontal cortex
molecule,measurement,setting,value
"NCCc1c[nH]c2ccc(O)cc12 [5-HT, serotonin]",effect of pretreatment on CRFR1 responsiveness (CRFR1-mediated cAMP formation),CRFR1,had no effect
COc1cccc([C@H](O)C2CCN(CCc3ccc(F)cc3)CC2)c1OC [M100907],frequency of open arm entries in the plus maze,mice [1]; [7],did not make any entries onto the open arm
same,latency to enter the open arms of the plus maze,mice [1]; [7],none of the mice entered the open arms
same,time spent in the closed arms of the plus maze,mice [1]; [7],increased
same,time spent in the open arms of the plus maze,mice [1]; [7],profoundly influenced
same,entries to the closed arms of the plus maze,mice [1]; [7],reduced the frequency of arm entries
"COc1cc(CC(C)N)c(OC)cc1I (stereo not shown) [DOI, 2,5-dimethoxy-4-iodoamphetamine]",latency to enter the center square of open field,mice [2],neither the CRF nor the DOI treatments alone influenced performance
same,arm entries at significantly higher doses of DOI,mice [3],elevated arm entries
same,latency to enter an open arm of the plus maze,mice [1]; [8],modest reduction
same,number of entries into the closed arms of the plus maze,mice [1]; [8],did not vary
same,number of entries onto the open arms of the plus maze,mice [1]; [8],modest reduction
same,frequency of open arm entries in the plus maze,mice [1]; [7],neither CRF nor DOI alone affected the frequency of open arm entries
same,latency to enter the open arms of the plus maze,mice [1]; [7],did not influence the latencies
same,time spent in the closed arms of the plus maze,mice [1]; [7],unaffected
same,entries to the closed arms of the plus maze,mice [1]; [7],increased closed arm entries
CC[C@@]1([C@@H]2O[C@@H]([C@H]3O[C@@](O)(CO)[C@H](C)C[C@@H]3C)C[C@@H]2C)CC[C@H]([C@]2(C)CC[C@]3(C[C@H](O)[C@@H](C)[C@@H]([C@@H](C)[C@@H](OC)[C@H](C)C(=O)O)O3)O2)O1 [monensin],effect on the CRFR1-dependent increase in 5-HT2AR-stimulated inositol phosphate formation following CRF pretreatment,5-HT2AR,attenuated the increase in 5-HT2AR signaling
same,effect on 5-HT2AR signaling in the absence of CRF pretreatment,"5-HT2AR; monensin 100 μM for 30 min, no CRF",did not affect 5-HT2AR signaling
B1,effect on the CRFR1-dependent increase in 5-HT2AR-stimulated inositol phosphate formation following CRF pretreatment,5-HT2AR,"but not the overexpression of Rab11-S25N, blocked the increase"
B2,cell surface expression of 5-HT2AR (biotinylation),HA-CRFR1 [4],3.7 fold
same,5-HT-stimulated inositol phosphate formation in prefrontal cortex slices,[5],2.3 fold
same,loss of cell surface HA-CRFR1 (flow cytometry),HA-CRFR1 [6],24%
B3,effect on the CRFR1-dependent increase in 5-HT2AR-stimulated inositol phosphate formation following CRF pretreatment,5-HT2AR,completely eliminated
